Test results as given in ChEMBL document CHEMBL1139817, “Synthesis and anti-inflammatory activity of 3-(4'-geranyloxy-3'-methoxyphenyl)-2-trans propenoic acid and its ester derivatives” (2007).

test system: Mus musculus; assay: Antiinflammatory activity in CD1 mouse assessed as inhibition of croton oil-induced ear oedema at 0.3 umol/cm^2 after 6 hrs; format: functional; set-up: scale not given: the % may be the effect or the level left

Compound	Activity
COc1cc(/C=C/C(=O)O)ccc1OC/C=C(\C)CCC=C(C)C	41%
COC(=O)c1ccccc1OC(=O)/C=C/c1ccc(OC/C=C(\C)CCC=C(C)C)c(OC)c1	42%
COc1cc(/C=C/C(=O)Oc2ccc3ccc(=O)oc3c2)ccc1OC/C=C(\C)CCC=C(C)C	38%
COC(=O)/C=C/c1ccc(OC(=O)/C=C/c2ccc(OC/C=C(\C)CCC=C(C)C)c(OC)c2)c(OC)c1	43%
COC(=O)c1ccc(OC(=O)/C=C/c2ccc(OC/C=C(\C)CCC=C(C)C)c(OC)c2)c(OC)c1	29%
COc1cc(/C=C/C(=O)Oc2ccccc2OC)ccc1OC/C=C(\C)CCC=C(C)C	49%
COc1cc(/C=C/C(=O)Oc2ccc3c(c2)C(=O)c2ccc(OC(=O)/C=C/c4ccc(OC/C=C(\C)CCC=C(C)C)c(OC)c4)cc2C3=O)ccc1OC/C=C(\C)CCC=C(C)C	43%
COc1cc(/C=C/C(=O)OC2=CC(=O)c3ccccc3C2=O)ccc1OC/C=C(\C)CCC=C(C)C	43%
COC(=O)/C=C/c1ccc(OC(=O)/C=C/c2ccc(OC/C=C(\C)CCC=C(C)C)c(OC)c2)c(OC(=O)/C=C/c2ccc(OC/C=C(\C)CCC=C(C)C)c(OC)c2)c1	38%
COc1cc(/C=C/C(=O)Oc2ccc(OC(=O)/C=C/c3ccc(OC/C=C(\C)CCC=C(C)C)c(OC)c3)cc2)ccc1OC/C=C(\C)CCC=C(C)C	57%
COc1cc(/C=C/C(=O)Oc2ccc(NC(C)=O)cc2)ccc1OC/C=C(\C)CCC=C(C)C	51%
CC(=O)Nc1ccc(O)cc1 [ACETAMINOPHEN]	13%
O=C1c2ccc(O)cc2C(=O)c2ccc(O)cc21 [ANTHRAFLAVICACID]	22%
O=C(O)/C=C/c1ccc(O)c(O)c1 [CAFFEIC ACID]	6%
COc1cc(/C=C/C(=O)O)ccc1O [FERULATE]	16%
COc1ccccc1O [GUAIACOL]	10%
Oc1ccc(O)cc1 [HYDROQUINONE]	4%
COc1ccc2c(c1)c(CC(=O)O)c(C)n2C(=O)c1ccc(Cl)cc1 [INDOMETHACIN]	62%
O=C1C=C(O)C(=O)c2ccccc21 [LAWSONE]	23%
O=C1C[C@@H](c2ccc(O)cc2)Oc2cc(O)cc(O)c21 [NARINGENIN]	43%
O=C(O)c1ccccc1O [SALICYLIC ACID]	13%
O=c1ccc2ccc(O)cc2o1 [UMBELLIFERONE]	23%
COc1cc(C(=O)O)ccc1O [VANILLIC ACID]	20%
